Drawing on patent publication US11427548B2 (Arvinas Operations, Inc., priority 2015, dated 2022), this text covers DC50 and Dmax for nine compounds.

Read-outs that look alike come from different tables or passages of the source.

The target in this experiment is T1, Androgen Receptor (Homo sapiens, UniProt P10275).
T1 construct: endogenous in cells; host or cells: VCaP cells
T1 sequence (P10275 1-920): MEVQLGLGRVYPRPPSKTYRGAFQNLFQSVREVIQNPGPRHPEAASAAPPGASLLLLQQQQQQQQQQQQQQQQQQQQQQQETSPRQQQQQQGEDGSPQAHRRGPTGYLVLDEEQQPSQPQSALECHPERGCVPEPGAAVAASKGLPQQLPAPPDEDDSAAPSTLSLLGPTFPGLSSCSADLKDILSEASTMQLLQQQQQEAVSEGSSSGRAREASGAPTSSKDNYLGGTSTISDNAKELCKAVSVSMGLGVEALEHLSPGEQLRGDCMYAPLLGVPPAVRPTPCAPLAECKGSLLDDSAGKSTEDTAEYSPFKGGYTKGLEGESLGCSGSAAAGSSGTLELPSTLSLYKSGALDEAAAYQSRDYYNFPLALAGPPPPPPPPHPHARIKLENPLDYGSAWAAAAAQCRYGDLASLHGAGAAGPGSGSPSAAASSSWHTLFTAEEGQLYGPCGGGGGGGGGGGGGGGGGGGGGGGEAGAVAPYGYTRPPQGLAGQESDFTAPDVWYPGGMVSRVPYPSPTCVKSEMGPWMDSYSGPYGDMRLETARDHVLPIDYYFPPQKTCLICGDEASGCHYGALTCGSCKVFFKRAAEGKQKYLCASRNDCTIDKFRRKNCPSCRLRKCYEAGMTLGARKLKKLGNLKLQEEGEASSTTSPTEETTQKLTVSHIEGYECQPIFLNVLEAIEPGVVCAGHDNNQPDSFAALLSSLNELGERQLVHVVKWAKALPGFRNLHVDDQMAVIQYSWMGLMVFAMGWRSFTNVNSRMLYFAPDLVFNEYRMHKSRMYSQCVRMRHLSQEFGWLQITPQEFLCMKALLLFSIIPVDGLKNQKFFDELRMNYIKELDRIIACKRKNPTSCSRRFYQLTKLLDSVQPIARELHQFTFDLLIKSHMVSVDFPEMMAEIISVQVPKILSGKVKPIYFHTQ
Briefly: Androgen Receptor ELISA assay (PathScan AR ELISA) in VCaP cells: AR degradation, Dmax and DC50. It counts as cell-based. The method, boiled down: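 After 24 h exposure of VCaP cells (charcoal-stripped serum, 0.1 nM R1881 agonist, 0.1% DMSO) to seven half-log compound concentrations, residual AR in lysates was measured by PathScan ELISA (TMB absorbance, 450 nm). Cells were plated at 30,000/well and grown at least 3 days beforehand.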
On the technique in general: An ELISA detects its analyte on a solid surface through an enzyme-linked reagent.

[1] abbreviates: VCaP cells; Table 36; read-out: VCaP DC50.
[2] abbreviates: VCaP, VCaP cells; Table 36; read-out: VCaP Dmax (%).
Setting [3] is: read-out: VCaP DC50; VCaP cells; Table 36.

Broadly, the DC50 is the midpoint of the concentration-degradation curve. Usually Dmax stands for the greatest extent of degradation seen. `Cc1ncsc1-c1ccc(C(CO)NC(=O)[C@@H]2CC(O)CN2C(=O)[C@@H](NC(=O)CN2CCN(CCN3CCN(c4ccc(C(=O)NC5C(C)(C)C(Oc6ccc(C#N)c(Cl)c6)C5(C)C)cn4)CC3)CC2)C(C)(C)C)cc1` (stereo partly drawn) [Example 834, N-((1r,3r)-3-(3-chloro-4-cyanophenoxy)-2,2,4,4-tetramethylcyclobutyl)-6-(4-(2-(4-(2-(((S)-1-((2S,4R)-4-hydroxy-2-(((R)-2-hydroxy-1-(4-(4-methylthiazol-5-yl)phenyl)ethyl)carbamoyl)pyrrolidin-1-yl)-3,3-dimethyl-1-oxobutan-2-yl)amino)-2-oxoethyl)piperazin-1-yl)ethyl)piperazin-1-yl)nicotinamide]: the DC50 under setting [1] is below 50 nM. Under setting [2], the Dmax is above 71%.

Take `Cc1ncsc1-c1ccc([C@H](C)NC(=O)C2C[C@@H](O)CN2C(=O)C(NC(=O)CN2C3CCC2CN(CCCCc2ccc(C(=O)N[C@H]4C(C)(C)[C@H](Oc5ccc(C#N)c(Cl)c5)C4(C)C)cc2)C3)C(C)(C)C)cc1` (stereo partly drawn) [Example 835, (2S,4R)-1-((2S)-2-(2-(3-(4-(4-(((1r,3r)-3-(3-chloro-4-cyanophenoxy)-2,2,4,4-tetramethylcyclobutyl)carbamoyl)phenyl)butyl)-3,8-diazabicyclo[3.2.1]octan-8-yl)acetamido)-3,3-dimethylbutanoyl)-4-hydroxy-N-((S)-1-(4-(4-methylthiazol-5-yl)phenyl)ethyl) pyrrolidine-2-carboxamide]: the Dmax (VCaP, read-out: VCaP Dmax (%)) is above 71%. In addition, the DC50 under setting [3] was below 50 nM.

`Cc1ncsc1-c1ccc([C@H](CO)NC(=O)[C@@H]2C[C@@H](O)CN2C(=O)[C@@H](NC(=O)CN2C3CCC2CN(CCCCc2ccc(C(=O)N[C@H]4C(C)(C)[C@H](Oc5ccc(C#N)c(Cl)c5)C4(C)C)cc2)C3)C(C)(C)C)cc1` [Example 836, (2S,4R)-1-((2S)-2-(2-(3-(4-(4-(((1r,3r)-3-(3-chloro-4-cyanophenoxy)-2,2,4,4-tetramethylcyclobutyl)carbamoyl)phenyl)butyl)-3,8-diazabicyclo[3.2.1]octan-8-yl)acetamido)-3,3-dimethylbutanoyl)-4-hydroxy-N-((R)-2-hydroxy-1-(4-(4-methylthiazol-5-yl)phenyl)ethyl) pyrrolidine-2-carboxamide]: the Dmax (VCaP, read-out: VCaP Dmax (%)) was above 71%. In addition, under setting [3], the half-maximal degradation concentration (DC50) is below 50 nM.

Take `Cc1ncsc1-c1ccc([C@H](C)NC(=O)[C@@H]2C[C@@H](O)CN2C(=O)[C@@H](NC(=O)CN2CCN(CCCc3ccc(C(=O)N[C@H]4C(C)(C)[C@H](Oc5ccc(C#N)c(Cl)c5)C4(C)C)cn3)CC2)C(C)(C)C)cc1` [Example 837, N-((1r,3r)-3-(3-chloro-4-cyanophenoxy)-2,2,4,4-tetramethylcyclobutyl)-6-(3-(4-(2-(((S)-1-((2S, 4R)-4-hydroxy-2-(((S)-1-(4-(4-methylthiazol-5-yl)phenyl)ethyl)carbamoyl)pyrrolidin-1-yl)-3,3-dimethyl-1-oxobutan-2-yl)amino)-2-oxoethyl)piperazin-1-yl)propyl) nicotinamide]: the 50% degradation concentration (DC50) under setting [1] is below 50 nM. In addition, the Dmax under setting [2] was above 71%.

On to `Cc1ncsc1-c1ccc([C@H](C)NC(=O)[C@@H]2C[C@@H](O)CN2C(=O)C(c2cc(CCN3CCN(c4ccc(C(=O)N[C@H]5C(C)(C)[C@H](Oc6ccc(C#N)c(Cl)c6)C5(C)C)cn4)CC3)no2)C(C)C)cc1` (stereo partly drawn) [Example 838, N-((1r,3r)-3-(3-chloro-4-cyanophenoxy)-2,2,4,4-tetramethylcyclobutyl)-6-(4-(2-(5-(1-((2S,4R)-4-hydroxy-2-(((S)-1-(4-(4-methylthiazol-5-yl)phenyl)ethyl)carbamoyl)pyrrolidin-1-yl)-3-methyl-1-oxobutan-2-yl)isoxazol-3-yl)ethyl)piperazin-1-yl) nicotinamide], for which the DC50 under setting [1] was below 50 nM. The maximal degradation (Dmax) under setting [2] lay in the range of 51 to 70%.

With `Cc1ncsc1-c1ccc([C@H](C)NC(=O)[C@@H]2C[C@@H](O)CN2C(=O)[C@@H](NC(=O)CN2C3CCC2CN(CCCc2ccc(C(=O)N[C@H]4C(C)(C)[C@H](Oc5ccc(C#N)c(Cl)c5)C4(C)C)cn2)C3)C(C)(C)C)cc1` [Example 839, N-((1r,3r)-3-(3-chloro-4-cyanophenoxy)-2,2,4,4-tetramethylcyclobutyl)-6-(3-(8-(2-(((S)-1-((2S, 4R)-4-hydroxy-2-(((S)-1-(4-(4-methylthiazol-5-yl)phenyl)ethyl)carbamoyl)pyrrolidin-1-yl)-3,3-dimethyl-1-oxobutan-2-yl)amino)-2-oxoethyl)-3,8-diazabicyclo[3.2.1]octan-3-yl)propyl) nicotinamide], the Dmax (VCaP, read-out: VCaP Dmax (%)) lay within 51 to 70%. Further, under setting [3], the DC50 was below 50 nM.

On to `Cc1ncsc1-c1ccc([C@H](C)NC(=O)C2C[C@@H](O)CN2C(=O)C(NC(=O)CN2C3CCC2CN(CCCCc2ccc(C(=O)N[C@H]4C(C)(C)[C@H](Oc5ccc(C#N)c(Cl)c5)C4(C)C)cn2)C3)C(C)(C)C)cc1` (stereo partly drawn) [Example 840, N-((1r,3r)-3-(3-chloro-4-cyanophenoxy)-2,2,4,4-tetramethylcyclobutyl)-6-(4-(8-(2-(((S)-1-((2S, 4R)-4-hydroxy-2-(((S)-1-(4-(4-methylthiazol-5-yl)phenyl)ethyl)carbamoyl)pyrrolidin-1-yl)-3,3-dimethyl-1-oxobutan-2-yl)amino)-2-oxoethyl)-3,8-diazabicyclo[3.2.1]octan-3-yl)butyl) nicotinamide], for which, under “VCaP, read-out: VCaP Dmax (%)”, the Dmax is above 71%. The DC50 under setting [3] was below 50 nM.

Take `Cc1ncsc1-c1ccc([C@H](CO)NC(=O)[C@@H]2C[C@@H](O)CN2C(=O)[C@@H](NC(=O)CN2CCN(CCC3CCN(c4ccc(C(=O)N[C@H]5C(C)(C)[C@H](Oc6ccc(C#N)c(Cl)c6)C5(C)C)cn4)C3)CC2)C(C)(C)C)cc1` (stereo partly drawn) [Example 841, N-((1r,3r)-3-(3-chloro-4-cyanophenoxy)-2,2,4,4-tetramethylcyclobutyl)-6-(3-(2-(4-(2-(((S)-1-((2S,4R)-4-hydroxy-2-(((R)-2-hydroxy-1-(4-(4-methylthiazol-5-yl)phenyl)ethyl)carbamoyl)pyrrolidin-1-yl)-3,3-dimethyl-1-oxobutan-2-yl)amino)-2-oxoethyl)piperazin-1-yl)ethyl)pyrrolidin-1-yl)nicotinamide]: the DC50 under setting [1] is below 50 nM. Under “VCaP, read-out: VCaP Dmax (%)”, the Dmax is above 71%.

In the case of `Cc1ncsc1-c1ccc([C@H](C)NC(=O)[C@@H]2C[C@@H](O)CN2C(=O)[C@@H](NC(=O)COC2CN(CCNc3ccc(C(=O)N[C@H]4C(C)(C)[C@H](Oc5ccc(C#N)c(Cl)c5)C4(C)C)cn3)C2)C(C)(C)C)cc1` [Example 842, N-((1r,3r)-3-(3-chloro-4-cyanophenoxy)-2,2,4,4-tetramethylcyclobutyl)-6-((2-(3-(2-(((S)-1-((2S,4R)-4-hydroxy-2-(((S)-1-(4-(4-methylthiazol-5-yl)phenyl)ethyl)carbamoyl)pyrrolidin-1-yl)-3,3-dimethyl-1-oxobutan-2-yl)amino)-2-oxoethoxy)azetidin-1-yl)ethyl)amino) nicotinamide], the DC50 under setting [1] was below 50 nM. Besides, the Dmax under setting [2] was 26 to 50%.
